Data taken from PubChem BioAssay AID1963842 (Molecular Pharmacology Branch, DTP, NCI, 2024).

System: 677734-321-R-J1-PDC complex spheroid viability
Assay: Anticancer human tumor 677734-321-R-J1-PDC patient-derived soft tissue sarcoma cell line growth inhibition [POLQ]
Settings: for IC50: curve of first compound; for viability, T/C: stronger effect = lower value
Method in brief: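 Complex spheroid viability model combining PDC tumour cells with endothelial (HUVEC) and MSC stromal cells. Novobiocin, ART-558 or RP6685 were tested singly and in combination with standard and investigational anticancer drugs. Each was titrated in half-log steps from near clinical Cmax, or from 10 microM where Cmax was unknown.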

[1] = second compound 0.0316 µM, first compound 0.0316 µM
[2] = second compound 0.0316 µM, first compound 0.1 µM
[3] = second compound 0.0316 µM, first compound 0.316 µM
[4] = second compound 0.0316 µM, first compound 1 µM
[5] = second compound 0.0316 µM, first compound 3.16 µM
[6] = second compound 0.0316 µM, first compound 10 µM
[7] = second compound 0.1 µM, first compound 0.0316 µM
[8] = second compound 0.1 µM, first compound 0.1 µM
[9] = second compound 0.1 µM, first compound 0.316 µM
[10] = second compound 0.1 µM, first compound 1 µM
[11] = second compound 0.1 µM, first compound 3.16 µM
[12] = second compound 0.1 µM, first compound 10 µM
[13] = second compound 0.316 µM, first compound 0.0316 µM
[14] = second compound 0.316 µM, first compound 0.1 µM
[15] = second compound 0.316 µM, first compound 0.316 µM
[16] = second compound 0.316 µM, first compound 1 µM
[17] = second compound 0.316 µM, first compound 3.16 µM
[18] = second compound 0.316 µM, first compound 10 µM
[19] = second compound 1 µM, first compound 0.0316 µM
[20] = second compound 1 µM, first compound 0.1 µM
[21] = second compound 1 µM, first compound 0.316 µM
[22] = second compound 1 µM, first compound 1 µM
[23] = second compound 1 µM, first compound 3.16 µM
[24] = second compound 1 µM, first compound 10 µM
[25] = second compound 3.16 µM, first compound 0.0316 µM
[26] = second compound 3.16 µM, first compound 0.1 µM
[27] = second compound 3.16 µM, first compound 0.316 µM
[28] = second compound 3.16 µM, first compound 1 µM
[29] = second compound 3.16 µM, first compound 3.16 µM
[30] = second compound 3.16 µM, first compound 10 µM
[31] = second compound 10 µM, first compound 0.0316 µM
[32] = second compound 10 µM, first compound 0.1 µM
[33] = second compound 10 µM, first compound 0.316 µM
[34] = second compound 10 µM, first compound 1 µM
[35] = second compound 10 µM, first compound 3.16 µM
[36] = second compound 10 µM, first compound 10 µM
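Also: spheroids exposed to compounds for one week.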
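For viability, T/C in this document: 100% = vehicle DMSO treated spheroids.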

## CC1COCCN1c1cc(-c2ccnn2C)c2ccnc(-c3ccn[nH]3)c2n1 (stereo unspecified) + COC1C(OC(N)=O)C(O)C(Oc2ccc3c(O)c(NC(=O)c4ccc(O)c(CC=C(C)C)c4)c(=O)oc3c2C)OC1(C)C
Second compound 0.0316 µM
  IC50: 0.153 µM
Second compound 0.1 µM
  IC50: 0.145 µM
Second compound 0.316 µM
  IC50: 0.142 µM
Second compound 1 µM
  IC50: 0.146 µM
Second compound 3.16 µM
  IC50: 0.145 µM
Second compound 10 µM
  IC50: 0.127 µM
[1]
  viability, T/C: 98.5%
[2]
  viability, T/C: 65.1%
[3]
  viability, T/C: 23.7%
[4]
  viability, T/C: 15.9%
[5]
  viability, T/C: 6.88%
[6]
  viability, T/C: 15.2%
[7]
  viability, T/C: 97.5%
[8]
  viability, T/C: 61.8%
[9]
  viability, T/C: 25.2%
[10]
  viability, T/C: 16.6%
[11]
  viability, T/C: 8.53%
[12]
  viability, T/C: 17.1%
[13]
  viability, T/C: 95.8%
[14]
  viability, T/C: 61.8%
[15]
  viability, T/C: 22.7%
[16]
  viability, T/C: 19.8%
[17]
  viability, T/C: 6.32%
[18]
  viability, T/C: 15.3%
[19]
  viability, T/C: 110%
[20]
  viability, T/C: 62.7%
[21]
  viability, T/C: 23.8%
[22]
  viability, T/C: 16.6%
[23]
  viability, T/C: 7.91%
[24]
  viability, T/C: 16.6%
[25]
  viability, T/C: 102%
[26]
  viability, T/C: 61.2%
[27]
  viability, T/C: 26.3%
[28]
  viability, T/C: 16.6%
[29]
  viability, T/C: 6.66%
[30]
  viability, T/C: 14.4%
[31]
  viability, T/C: 98.1%
[32]
  viability, T/C: 57.9%
[33]
  viability, T/C: 20.1%
[34]
  viability, T/C: 17.1%
[35]
  viability, T/C: 8.68%
[36]
  viability, T/C: 16.7%

## CC1COCCN1c1cc(C2(S(C)(=N)=O)CC2)nc(-c2ccnc3[nH]ccc23)n1 (stereo unspecified) + COC1C(OC(N)=O)C(O)C(Oc2ccc3c(O)c(NC(=O)c4ccc(O)c(CC=C(C)C)c4)c(=O)oc3c2C)OC1(C)C
Second compound 0.0316 µM
  IC50: 5.96 µM
Second compound 0.1 µM
  IC50: 4.24 µM
Second compound 0.316 µM
  IC50: 3.12 µM
Second compound 1 µM
  IC50: 4.67 µM
Second compound 3.16 µM
  IC50: 3.85 µM
Second compound 10 µM
  IC50: 3.85 µM
[1]
  viability, T/C: 109%
[2]
  viability, T/C: 117%
[3]
  viability, T/C: 95.5%
[4]
  viability, T/C: 101%
[5]
  viability, T/C: 62.4%
[6]
  viability, T/C: 39.5%
[7]
  viability, T/C: 110%
[8]
  viability, T/C: 113%
[9]
  viability, T/C: 106%
[10]
  viability, T/C: 93%
[11]
  viability, T/C: 58.7%
[12]
  viability, T/C: 24.3%
[13]
  viability, T/C: 109%
[14]
  viability, T/C: 104%
[15]
  viability, T/C: 104%
[16]
  viability, T/C: 91.1%
[17]
  viability, T/C: 49.5%
[18]
  viability, T/C: 18.5%
[19]
  viability, T/C: 112%
[20]
  viability, T/C: 98.7%
[21]
  viability, T/C: 100%
[22]
  viability, T/C: 92.2%
[23]
  viability, T/C: 62.3%
[24]
  viability, T/C: 24.3%
[25]
  viability, T/C: 109%
[26]
  viability, T/C: 104%
[27]
  viability, T/C: 99.6%
[28]
  viability, T/C: 98.8%
[29]
  viability, T/C: 55.5%
[30]
  viability, T/C: 22.9%
[31]
  viability, T/C: 108%
[32]
  viability, T/C: 107%
[33]
  viability, T/C: 106%
[34]
  viability, T/C: 92%
[35]
  viability, T/C: 56%
[36]
  viability, T/C: 21.6%

## CNCc1ccc(-c2[nH]c3cc(F)cc4c3c2CCNC4=O)cc1 + COC1C(OC(N)=O)C(O)C(Oc2ccc3c(O)c(NC(=O)c4ccc(O)c(CC=C(C)C)c4)c(=O)oc3c2C)OC1(C)C
Second compound 0.0316 µM
  IC50: > 10 µM
Second compound 0.1 µM
  IC50: > 10 µM
Second compound 0.316 µM
  IC50: > 10 µM
Second compound 1 µM
  IC50: > 10 µM
Second compound 3.16 µM
  IC50: > 10 µM
Second compound 10 µM
  IC50: > 10 µM
[1]
  viability, T/C: 101%
[2]
  viability, T/C: 103%
[3]
  viability, T/C: 96.6%
[4]
  viability, T/C: 107%
[5]
  viability, T/C: 111%
[6]
  viability, T/C: 103%
[7]
  viability, T/C: 103%
[8]
  viability, T/C: 101%
[9]
  viability, T/C: 101%
[10]
  viability, T/C: 109%
[11]
  viability, T/C: 104%
[12]
  viability, T/C: 96.5%
[13]
  viability, T/C: 107%
[14]
  viability, T/C: 102%
[15]
  viability, T/C: 106%
[16]
  viability, T/C: 106%
[17]
  viability, T/C: 104%
[18]
  viability, T/C: 103%
[19]
  viability, T/C: 114%
[20]
  viability, T/C: 99.8%
[21]
  viability, T/C: 101%
[22]
  viability, T/C: 107%
[23]
  viability, T/C: 106%
[24]
  viability, T/C: 104%
[25]
  viability, T/C: 102%
[26]
  viability, T/C: 106%
[27]
  viability, T/C: 100%
[28]
  viability, T/C: 110%
[29]
  viability, T/C: 108%
[30]
  viability, T/C: 101%
[31]
  viability, T/C: 106%
[32]
  viability, T/C: 102%
[33]
  viability, T/C: 106%
[34]
  viability, T/C: 108%
[35]
  viability, T/C: 105%
[36]
  viability, T/C: 101%
